“Also recorded” adds a separate entry of the source.
How the values were obtained:
[1] = background; cited from earlier work
[2] = tested on: insects; settings: background; cited from earlier work
[3] = tested on: multifunction oxidase (MFO) enzymes; settings: background; cited from earlier work
[4] = tested on: Female housefly; assay: Metabolism of 3H-ethoxyaniline by female RSP housefly; settings: for Female housefly, percent 3H in Excreta / Female housefly, percent 3H in Homogenate: 24 hr after topical 1.0 μg 3H-ethoxyaniline (compound III)
Protocol: (§1) The compounds of the present invention were tested for insecticidal activity by standard methods, and compared with the insecticidal activities of DDT and symmetrical analogs of DDT, such methoxychlor. Toxicological methods for the determination of the topical LD50 values to adult female SNAIDM and RSP houseflies, Musca domestica L. and to Phormia regina, and LC50 values to Culex pipiens quinquefasciatus Say, and Anopheles albimanus Weid mosquitoes were described by Metcalf el al., 44 Bull. World Health Org. 363 (1971). The methods for evaluation of metabolism by mouse liver homogenate and by female RSP housefly and salt-marsh caterpillar larvae Estigmene acrea Drury, were described by Kapoor et al., 18 J. Agr. Food Chem. 1145 (1970). The techniques for model eocsystem evluation were described by Metcalf et al., 5 J. Environ. Sci. Tech. 709 (1971).
(§2) The biodegradability of an insecticide may be measured by administering measured doses of a tritium labeled test insecticide to a subject. Some time later the subject is sacrificed, liquefied, and a sample of the liquefied insect is placed on a thin layer chromotagraphy (tlc) plate. The plate is developed in a suitable solvent and Rf values of the various compounds contained in the sample are measured against known Rf values of previously synthesized theoretical metabolic breakdown products. The amount of each metabolite present may thus be measured by measuring the ^3 H at each separately resolved spot on the tlc plate. A permanent record may be made by exposing film to the plate to form a ratioautograph.

[5] = tested on: Salt-marsh caterpillar; assay: Metabolism of 3H-ethoxyaniline by salt-marsh caterpillar larvae; settings: for Salt-marsh caterpillar, percent 3H in Excreta / Salt-marsh caterpillar, percent 3H in Homogenate: 24 hr after feeding 0.5 mg 3H-ethoxyaniline (compound III)
Protocol: as §1, §2

[6] = Metabolism of 3H-labeled compound by mouse liver homogenate; settings: for Mouse liver, percent 3H in homogenate: 0.01 μM 3H-labeled compound III, 1 hr incubation, NADPH and nicotinamide
Protocol: as §1, §2

[7] = Model ecosystem: distribution, ecological magnification and Biodegradability Index; settings: for Concentration of ethoxyaniline equivalents in Culex (mosquito) / Concentration of ethoxyaniline equivalents in Gambusia (fish) / Concentration of ethoxyaniline equivalents in H2O / Concentration of ethoxyaniline equivalents in Oedogonium (algae) / Concentration of ethoxyaniline equivalents in Physa (snail): 5.0 mg 3H-ethoxyaniline to Sorghum; for ecological magnification (E.M.): ratio of parent material in fish to concentration in water
Source text: After the amounts of the various metabolites have been calculated and a determination is made as to which of the metabolites are to be designated as "polar" and which are to be designated as "non-polar", a Biodegradability Index (amount of polar metabolites/amount of nonpolar metabolites) may be calculated. Remembering that nonpolar compounds, such as DDT are readily soluble in the fatty tissues, but are not readily soluble in water based solutions, and that the cell fluid is essentially a water based solution, the lower the Biodegradability Index, the lower the amount of biodegradability of the compound. The higher the amount of polarity, the greater the likelihood that the polar compound will dissolve in water, a very polar compound, and be eliminated from the cell.
The environmental fate of any new pesticide is a factor of paramount importance in determining how and where it might be used. The behavior of ^3 H-α-trichloromethyl-p-ethoxybenzyl-p-ethoxyaniline has been studied by the model ecosystem technique following application of 5.0 mg. of labeled compound to Sorghum plants. A summary of
metabolites from the organisms in the model ecosystem after 33 days were
identified by cochromatography with standards of known constitution, by
appropriate chromogenic reagents, and by high-resolution mass
spectrometry. The data of Table IV indicate the O-dealkylation of
Food Chem. 1 (1972). Ethoxychlor was found in the snail to 58.6 ppm and in the fish to 0.92 ppm, along with its ethylene and the mono- and bis-phenols formed by O-dealkylation. The ecological magnification (E.M.) of ethoxychlor, defined as the ratio of the parent material in the fish to the concentration in the water, was 1500-fold as compared with an E.M. of only 0.7-fold for the ethoxyaniline.
Comparing the Biodegradability Indices (B.I.=total recovered polar metabolites/total recovered nonpolar metabolites) the values are 0.44 for ethoxychlor and 2.0 for ethoxyaniline.

[8] = background; cited from earlier work; remark: listed apart in the source
[9] = tested on: Musca domestica Snaidm; assay: Topical LD50 to adult female SNAIDM houseflies
[10] = tested on: Musca domestica Rsp; assay: Topical LD50 to adult female RSP houseflies
[11] = tested on: Phormia regina; assay: whole plant or invertebrate; settings: topical
[12] = tested on: Culex fatigans larvae; assay: LC50 to Culex fatigans larvae; format: in vivo, Culex pipiens quinquefasciatus Say
Source text: (§3) World Health Org. 363 (1971). […] Food Chem. 1145 (1970). […] Sci. Tech. 709 (1971). The results are detailed in Table II. ##SPC1##

[13] = tested on: Anopheles albimanus larvae; assay: LC50 to Anopheles albimanus larvae; format: in vivo, Anopheles albimanus Weid
Source text: as §3

[14] = synergistic ratio: LD50 alone/LD50 synergized with piperonyl butoxide
[15] = female RSP housefly, topical 1.0 μg, 24 hr

COc1ccc(C(c2ccc(OC)cc2)C(Cl)(Cl)Cl)cc1 [methoxychlor, 1,1,1-trichloro-,2,2-bis(p-methoxyphenyl)ethane]
accumulation in animal tissues (in words) [1]: not generally accumulated in animal tissues | insecticidal activity (in words) [2]: considerably less insecticidal activity than DDT towards other species of insects | susceptibility to MFO enzymes (in words) [3]: readily attacked by MFO enzymes

CCOc1ccc(N)cc1 [C2 H5 OC6 H4 NH2, p-ethoxyaniline]
Female housefly, percent 3H in Excreta [4]: 9.1% | Female housefly, percent 3H in Homogenate [4]: 8.3% | Salt-marsh caterpillar, percent 3H in Excreta [5]: 8.4% | Salt-marsh caterpillar, percent 3H in Homogenate [5]: 15.0% | Mouse liver, percent 3H in homogenate [6]: 13.7% | Concentration of ethoxyaniline equivalents in Culex (mosquito) ([7]; 33 days): 0.01 ppm | Concentration of ethoxyaniline equivalents in Gambusia (fish) ([7]; 33 days): 0.03 ppm | Concentration of ethoxyaniline equivalents in H2O ([7]; H2O, 33 days): 0.053 ppm | Concentration of ethoxyaniline equivalents in Oedogonium (algae) ([7]; 33 days): 0.42 ppm | Concentration of ethoxyaniline equivalents in Physa (snail) ([7]; 33 days): 2.556 ppm

Clc1ccc(C(c2ccc(Cl)cc2)C(Cl)(Cl)Cl)cc1 [DDT, 1,1,1 trichloro-2,2-bis(p-chlorophenyl)ethane]
ecological magnification (E.M.) [7]: 84,000 fold | Biodegradability Index (B.I.) ([7]; total recovered polar/total recovered nonpolar metabolites): 0.015 | lipid solubility (in words) [8]: high lipid solubility | water solubility (in words) [8]: very low water solubility | accumulation in animal tissues (in words) [1]: accumulation in the fatty or lipid tissues of animals | insecticidal activity (in words) [2]: effective contact or residual insecticide | biodegradability (in words) [3]: not biodegradable | susceptibility to MFO enzymes (in words) [3]: do not function on DDT and its metabolic derivatives DDE and DDD

Cc1ccc(C(c2ccc(C)cc2)C(Cl)(Cl)Cl)cc1 [methylchlor, 1,1,1-trichloro-2,2-bis(p-methylphenyl)ethane]
insecticidal activity (in words) [2]: considerably less insecticidal activity than DDT towards other species of insects

CCOc1ccc(NC(c2ccc(OCC)cc2)C(Cl)(Cl)Cl)cc1 (stereo not drawn) [Compound III, α-trichloromethyl-p-ethoxybenzyl-p-ethoxyaniline]
LD50 ([9]; Musca domestica, topical, read-out: Topical LD50, Musca domestica Snaidm, Alone): 15.5 mg/kg | Topical LD50, Musca domestica Snaidm, with pb ([9]; SNAIDM strain, synergized with piperonyl butoxide, topical): 4.2 μg per g | SR, Musca domestica Snaidm [9, 14]: 3.7 | LD50 ([10]; Musca domestica, topical, read-out: Topical LD50, Musca domestica Rsp, Alone): 20.5 mg/kg | Topical LD50, Musca domestica Rsp, with pb ([10]; RSP strain, synergized with piperonyl butoxide, topical): 6.5 μg per g | SR, Musca domestica Rsp [10, 14]: 3.2 | LD50 ([11]; Phormia regina, read-out: Topical LD50, Phormia regina, Alone): 33.7 mg/kg | Topical LD50, Phormia regina, with pb ([11]; synergized with piperonyl butoxide): 9.7 μg per g | LC50 Culex fatigans larvae [12]: 0.19 ppm | LC50 Anopheles albimanus larvae [13]: 0.28 ppm | Female housefly, percent 3H in Excreta [4]: 22.9% | Female housefly, percent 3H in Homogenate [4]: 37.6% | 3H recovered as body homogenate [4, 15]: 65% | 3H recovered as body wash [4, 15]: 19.2% | 3H recovered as excreta [4, 15]: 10% | recovery of the 3H ([4]; female RSP housefly, topical 1.0 μg, 24 hr, total): 94.2% | metabolic pathway in insect and mammal (in words) ([4]; insects (housefly, caterpillar) and mouse liver homogenate): metabolized in both the insect and the mammal by O-dealkylation to form both mono- and bis- phenols | 3H recovered in excreta ([5]; 4th instar larvae, 0.5 mg fed, 24 hr): 75% | Salt-marsh caterpillar, percent 3H in Excreta [5]: 2.5% | Salt-marsh caterpillar, percent 3H in Homogenate [5]: 9.0% | Mouse liver, percent 3H in homogenate [6]: 30% | metabolic pathway (in words) ([6]; mouse liver homogenate, 1 hr): attacked by O-dealkylation to produce either one or both of the monophenolic derivatives | Concentration of ethoxyaniline equivalents in Culex (mosquito) ([7]; 33 days): 0.28 ppm | Concentration of ethoxyaniline equivalents in Gambusia (fish) ([7]; 33 days): 0.04 ppm | Concentration of ethoxyaniline equivalents in H2O ([7]; H2O, 33 days): 0.055 ppm | Concentration of ethoxyaniline equivalents in Oedogonium (algae) ([7]; 33 days): 1.09 ppm | Concentration of ethoxyaniline equivalents in Physa (snail) ([7]; 33 days): 22.68 ppm | biodegradability (in words) ([7]; model ecosystem comparison): substantially biodegradable; also recorded: by far superior in both E.M. and B.I | ecological magnification (E.M.) [7]: 0.7 fold | Total 3H in Culex (mosquito) (ethoxyaniline equivalents) ([7]; total 3H, Culex, 33 days): 1.0 ppm | Total 3H in Gambusia (fish) (ethoxyaniline equivalents) ([7]; total 3H, Gambusia, 33 days): 0.30 ppm | Total 3H in H2O (ethoxyaniline equivalents) ([7]; total 3H, H2O, 33 days): 0.363 ppm | Total 3H in Oedogonium (algae) (ethoxyaniline equivalents) ([7]; total 3H, Oedogonium, 33 days): 3.03 ppm | Total 3H in Physa (snail) (ethoxyaniline equivalents) ([7]; total 3H, Physa, 33 days): 36.0 ppm

CSc1ccc(C(c2ccc(SC)cc2)C(Cl)(Cl)Cl)cc1 [methiochlor, 1,1,1-trichloro-2,2-bis-(p-methiophenyl)ethane]
insecticidal activity (in words) [2]: considerably less insecticidal activity than DDT towards other species of insects | susceptibility to MFO enzymes (in words) [3]: readily attacked by MFO enzymes

Source: US3941842A, “P,P'-Disubstituted α-trichloromethylbenzylanilines” (priority 1972, dated 1976)
